In US20150283270A1, “MODELING ANTI-LEUKEMIC THERAPY BY PATIENT DERIVED AML XENOGRAFTS WITH DISTINCT PHENOTYPES/GENOTYPES” (Crown Bioscience Inc., priority 2014, published 2015):
“Also recorded” adds a separate entry of the source.

Tested on: AM7577 leukemic cells (hCD45+)
Assay: Evaluation of anti-leukemia activity of a therapeutic in AM7577-mice (AML patient derived xenograft)
Assay type: in vivo, NOD/SCID mice
Conditions: for Inhibition of leukemia in blood: FIG. 4 legend; for Leukemic load in peripheral blood (hCD45+): 5-day-on/2-day-off, starting 15 days post-engraftment
Procedure: Animal experiments were conducted at Crown Bioscience's laboratory, China. The transplantation recipient NOD/SCID mice were purchased from Beijing HFK Bioscience at between 3-4 weeks of age. The Institutional Animal Care and Use Committee (IACUC) of Crown Bioscience approved animal study protocols. All procedures were under sterile conditions at Crown Bioscience's SPF facility and conducted in strict accordance with the Guide for the Care and Use of Laboratory Animals of the National Institutes of Health. Ficoll® column isolated MNCs were injected into the tail-vein of 4-week old, sub lethally irradiated NOD/SCID mice ([…]), followed by weekly monitoring for peripheral appearance of leukemic cells (CD45^+) via retro-orbital bleeding and flow analysis. Briefly, ˜50 μL blood was collected into anticoagulative tubes (BD 365974, Becton Dickinson and Co., Franklin Lakes, N.J.). After lysis of red blood cells the cells were stained with 20 μL mouse anti-human CD45 antibody (Biolegend, CA) and incubated on ice for 30 minutes in the dark followed by washing with cold PBS. The cells were resuspended in150 μL PBS and subjected to FACS analysis.
Fifteen days post-engraftment, mice were administered different doses of cytarabine (AraC). Mouse blood was collected by retro-orbital bleed and human CD45^+ cells were quantified weekly by flow cytometry. Body weight and clinical signs were also monitored twice weekly. When mice became morbid due to full-blown leukemia, the animals were sacrificed, followed by gross and microscopic examinations. Major relevant organs (bone marrow, spleen, blood, liver, lymph nodes, etc.) were examined and harvested for further analysis, including IHC (method described previously, Yang, M. et al., Int J Cancer. 2012; Sep. 5. doi: 10.1002/ijc.27813) and immunological phenotyping of the leukemia cells by FACS.
Cytarabine (AraC) is the current standard chemotherapy agent for induction therapy of AML, including AML-M5. We tested AraC anti-leukemic activity against AM7577, by subjecting AM7577-mice to a 5-day-on/2-day-off Ara-C dosing regimen, starting 15 days post-engraftment.
We subsequently explored whether AraC treatment actually cured the disease by withdrawing treatment. The result was rapid relapse just a few days post-treatment withdrawal (FIG. 3A). This observation can potentially be interpreted as AraC has only affected leukemic blasts, but has no affect on LICs.

SMILES	Inhibition of leukemia in blood	Leukemic load in peripheral blood (hCD45+) (3 mg/kg)	Leukemic load in peripheral blood (hCD45+) (10 mg/kg)	Relapse after drug withdrawal (AM7577-mice, after treatment withdrawal)	Treatment & response (AML mouse model AM7577)	Leukemic blasts in peripheral blood on resuming treatment after withdrawal (second dosing period after relapse)	Survival of AM7577-mice (under treatment vs vehicle group)
CC(C)(C)c1cc(NC(=O)Nc2ccc(-c3cn4c(n3)sc3cc(OCCN5CCOCC5)ccc34)cc2)no1 [AC220]	Inhibition	–	–	–	–	–	–
Nc1ccn([C@@H]2O[C@H](CO)[C@@H](O)[C@@H]2O)c(=O)n1 [AraC, Cytarabine]	–	no detectable leukemic load	no detectable leukemic load	rapidly relapsed; also recorded: rapid relapse	complete remission	effectively re-suppressed	extended life; also recorded: extended AM7577-mice survival times
CNC(=O)c1cc(Oc2ccc(NC(=O)Nc3ccc(Cl)c(C(F)(F)F)c3)cc2)ccn1 [sorafenib]	Inhibition	–	–	–	–	–	–
